# Measured values taken from patent US9447038B2 (SANOFI, priority 2012, dated 2016).
# Where a name gives a salt, the structure may show the parent alone.
# Biological target: human CXCR3-A receptor (Homo sapiens (Human), UniProt P49682)
# Assay: 125I-CXCL10 competition radioligand binding assay;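 note: One-hour incubation of membranes with tracer, bound radioligand separated by glass fibre filtration, IC50 derived from four-parameter nonlinear fit of competition curves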
# Settings: displacement of 125I-CXCL10 from membranes of CHO cells expressing human recombinant CXCR3-A
# human CXCR3-A receptor, sequence (P49682 whole entry): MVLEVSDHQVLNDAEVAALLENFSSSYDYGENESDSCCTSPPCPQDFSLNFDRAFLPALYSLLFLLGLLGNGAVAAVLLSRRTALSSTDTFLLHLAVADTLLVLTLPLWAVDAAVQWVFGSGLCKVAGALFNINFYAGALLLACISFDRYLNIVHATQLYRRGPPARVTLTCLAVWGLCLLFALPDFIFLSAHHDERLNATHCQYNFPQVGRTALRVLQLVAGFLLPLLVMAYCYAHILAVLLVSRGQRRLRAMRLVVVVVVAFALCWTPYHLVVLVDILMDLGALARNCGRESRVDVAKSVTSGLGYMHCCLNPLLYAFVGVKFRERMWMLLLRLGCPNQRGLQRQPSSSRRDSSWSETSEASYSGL
row,Compound,IC50 [nM]
1,"CCc1cc(CN(CC(C)C)C(CC(=O)O)c2ccc(Cl)c(F)c2)ccc1OCCN1C(=O)CCC1=O (stereo not drawn) [Example 92, 3-(4-Chloro-3-fluoro-phenyl)-3-({4-[2-(2,5-dioxo-pyrrolidin-1-yl)-ethoxy]-3-ethyl-benzyl}-isobutyl-amino)-propionic acid]",66
2,"CCc1cc(CN(CC2CCCC2)C(CC(=O)O)c2ccc(Cl)c(F)c2)ccc1OCCN1C(=O)CCC1=O (stereo not drawn) [Example 94, 3-(4-Chloro-3-fluoro-phenyl)-3-(cyclopentylmethyl-{4-[2-(2,5-dioxo-pyrrolidin-1-yl)-ethoxy]-3-ethyl-benzyl}-amino)-propionic acid]",71
3,"CCc1cc(CN(CC2CCCCC2)C(CC(=O)O)c2ccc(Cl)c(F)c2)ccc1OCCN1C(=O)CCC1=O (stereo not drawn) [Example 95, 3-(4-Chloro-3-fluoro-phenyl)-3-(cyclohexylmethyl-{4-[2-(2,5-dioxo-pyrrolidin-1-yl)-ethoxy]-3-ethyl-benzyl}-amino)-propionic acid]",144
4,"CCc1cc(CN(CC2CC2)C(CC(=O)O)c2ccc(Cl)c(Cl)c2)ccc1OCCN1C(=O)CCC1=O (stereo not drawn) [Example 96, 3-(Cyclopropylmethyl-{4-[2-(2,5-dioxo-pyrrolidin-1-yl)-ethoxy]-3-ethyl-benzyl}-amino)-3-(3,4-dichloro-phenyl)-propionic acid]",78
5,"CCc1cc(CN(CC(C)C)C(CC(=O)O)c2ccc(Cl)c(Cl)c2)ccc1OCCN1C(=O)CCC1=O (stereo not drawn) [Example 98, 3-(3,4-Dichloro-phenyl)-3-({4-[2-(2,5-dioxo-pyrrolidin-1-yl)-ethoxy]-3-ethyl-benzyl}-isobutyl-amino)-propionic acid]",130
6,"CCc1cc(CN(CC2CCCCC2)C(CC(=O)O)c2ccc(Cl)c(Cl)c2)ccc1OCCN1C(=O)CCC1=O (stereo not drawn) [Example 101, 3-(Cyclohexylmethyl-{4-[2-(2,5-dioxo-pyrrolidin-1-yl)-ethoxy]-3-ethyl-benzyl}-amino)-3-(3,4-dichloro-phenyl)-propionic acid]",292
7,"O=C(O)CC(c1ccc(Cl)cc1)N(Cc1ccc(OCCN2C(=O)CCC2=O)c(Cl)c1)CC1CC1 (stereo not drawn) [Example 102, 3-({3-Chloro-4-[2-(2,5-dioxo-pyrrolidin-1-yl)-ethoxy]-benzyl}-cyclopropylmethyl-amino)-3-(4-chloro-phenyl)-propionic acid; hydrochloride]",83
8,"CCCN(Cc1ccc(OCCN2C(=O)CCC2=O)c(Cl)c1)C(CC(=O)O)c1ccc(Cl)cc1 (stereo not drawn) [Example 103, 3-({3-Chloro-4-[2-(2,5-dioxo-pyrrolidin-1-yl)-ethoxy]-benzyl}-propyl-amino)-3-(4-chloro-phenyl)-propionic acid]",170
9,"O=C(O)C[C@@H](c1ccc(Cl)cc1)N(Cc1ccc(OCCN2C(=O)CCC2=O)c(Cl)c1)CC1CCC1 [Example 104, (S)-3-({3-Chloro-4-[2-(2,5-dioxo-pyrrolidin-1-yl)-ethoxy]-benzyl}-cyclobutylmethyl-amino)-3-(4-chloro-phenyl)-propionic acid]",145
10,"CCCN(Cc1ccc(OCCN2C(=O)CCC2=O)c(Cl)c1)C(CC(=O)O)c1ccc(Cl)c(F)c1 (stereo not drawn) [Example 105, 3-({3-Chloro-4-[2-(2,5-dioxo-pyrrolidin-1-yl)-ethoxy]-benzyl}-propyl-amino)-3-(4-chloro-3-fluoro-phenyl)-propionic acid]",211
11,"CCCN(Cc1ccc(OCCN2C(=O)CCC2=O)c(Cl)c1)C(CC(=O)O)c1ccc(Cl)c(Cl)c1 (stereo not drawn) [Example 107, 3-({3-Chloro-4-[2-(2,5-dioxo-pyrrolidin-1-yl)-ethoxy]-benzyl}-propyl-amino)-3-(3,4-dichloro-phenyl)-propionic acid]",570
12,"COc1cc(CN(CC2CC2)[C@H](C(=O)O)c2ccc(Cl)c(Cl)c2)ccc1OCCN1C(=O)CCC1=O [Example 108, (S)-(Cyclopropylmethyl-{4-[2-(2,5-dioxo-pyrrolidin-1-yl)-ethoxy]-3-methoxy-benzyl}-amino)-(3,4-dichloro-phenyl)-acetic acid]",200
13,"COc1cc(CN(CC2CC2)C(CC(=O)O)c2ccc(Cl)c(Cl)c2)ccc1OCCn1c(=O)ccn(C)c1=O (stereo not drawn) [Example 124, 3-(Cyclopropylmethyl-{3-methoxy-4-[2-(3-methyl-2,6-dioxo-3,6-dihydro-2H-pyrimidin-1-yl)-ethoxy]-benzyl}-amino)-3-(3,4-dichloro-phenyl)-propionic acid]",30
14,"CCCN(Cc1ccc(OCCn2c(=O)ccn(C)c2=O)c(OC)c1)C(CC(=O)O)c1ccc(Cl)c(Cl)c1 (stereo not drawn) [Example 125, 3-(3,4-Dichloro-phenyl)-3-({3-methoxy-4-[2-(3-methyl-2,6-dioxo-3,6-dihydro-2H-pyrimidin-1-yl)-ethoxy]-benzyl}-propyl-amino)-propionic acid]",72
15,"COc1cc(CN(CC2CCCC2)C(CC(=O)O)c2ccc3c(c2)CCO3)ccc1OCCn1c(=O)ccn(C)c1=O (stereo not drawn) [Example 127, 3-(Cyclopentylmethyl-{3-methoxy-4-[2-(3-methyl-2,6-dioxo-3,6-dihydro-2H-pyrimidin-1-yl)-ethoxy]-benzyl}-amino)-3-(2,3-dihydro-benzofuran-5-yl)-propionic acid]",38
16,"COc1cc(CN(CC2CCCCC2)C(CC(=O)O)c2ccc3c(c2)CCO3)ccc1OCCn1c(=O)ccn(C)c1=O (stereo not drawn) [Example 128, 3-(Cyclohexylmethyl-{3-methoxy-4-[2-(3-methyl-2,6-dioxo-3,6-dihydro-2H-pyrimidin-1-yl)-ethoxy]-benzyl}-amino)-3-(2,3-dihydro-benzofuran-5-yl)-propionic acid]",118
17,"Cc1cc(CN(CCC(F)(F)F)C(CC(=O)O)c2ccc(Cl)cc2)ccc1OCCn1c(=O)ccn(C)c1=O (stereo not drawn) [Example 129, 3-(4-Chloro-phenyl)-3-[{3-methyl-4-[2-(3-methyl-2,6-dioxo-3,6-dihydro-2H-pyrimidin-1-yl)-ethoxy]-benzyl}-(3,3,3-trifluoro-propyl)-amino]-propionic acid]",2150
18,"COc1cc(CN(CCC(F)(F)F)C(CC(=O)O)c2ccc(Cl)cc2)ccc1OCCn1c(=O)ccn(C)c1=O (stereo not drawn) [Example 130, 3-(4-Chloro-phenyl)-3-[{3-methoxy-4-[2-(3-methyl-2,6-dioxo-3,6-dihydro-2H-pyrimidin-1-yl)-ethoxy]-benzyl}-(3,3,3-trifluoro-propyl)-amino]-propionic acid]",1250

# Further compounds by falling IC50, results first:
row,IC50 [nM],Compound
1,786,"COc1cc(CN(CC(C)C)[C@@H](C(=O)O)c2ccc(Cl)c(Cl)c2)ccc1OCCN1C(=O)CCC1=O [Example 110, (R)-(3,4-Dichloro-phenyl)-({4-[2-(2,5-dioxo-pyrrolidin-1-yl)-ethoxy]-3-methoxy-benzyl}-isobutyl-amino)-acetic acid]"
2,464,"CCc1cc(CN(CC2CCCC2)C(CC(=O)O)c2ccc(Cl)c(Cl)c2)ccc1OCCN1C(=O)CCC1=O (stereo not drawn) [Example 100, 3-(Cyclopentylmethyl-{4-[2-(2,5-dioxo-pyrrolidin-1-yl)-ethoxy]-3-ethyl-benzyl}-amino)-3-(3,4-dichloro-phenyl)-propionic acid]"
3,420,"COc1cc(CN(CC2CC2)[C@@H](C(=O)O)c2ccc(Cl)c(Cl)c2)ccc1OCCN1C(=O)CCC1=O [Example 111, (R)-(Cyclopropylmethyl-{4-[2-(2,5-dioxo-pyrrolidin-1-yl)-ethoxy]-3-methoxy-benzyl}-amino)-(3,4-dichloro-phenyl)-acetic acid]"
4,310,"CCN(Cc1ccc(OCCn2c(=O)ccn(C)c2=O)c(OC)c1)C(CC(=O)O)c1ccc(Cl)c(Cl)c1 (stereo not drawn) [Example 126, 3-(3,4-Dichloro-phenyl)-3-(ethyl-{3-methoxy-4-[2-(3-methyl-2,6-dioxo-3,6-dihydro-2H-pyrimidin-1-yl)-ethoxy]-benzyl}-amino)-propionic acid]"
5,223,"O=C(O)CC(c1ccc(Cl)c(Cl)c1)N(Cc1ccc(OCCN2C(=O)CCC2=O)c(Cl)c1)CC1CC1 (stereo not drawn) [Example 106, 3-({3-Chloro-4-[2-(2,5-dioxo-pyrrolidin-1-yl)-ethoxy]-benzyl}-cyclopropylmethyl-amino)-3-(3,4-dichloro-phenyl)-propionic acid; hydrochloride]"
6,192,"COc1cc(CN(CC2CC2)C(CC(=O)O)c2ccc(Cl)cc2)ccc1CCCN1C(=O)CCC1=O (stereo not drawn) [Example 132, 3-(4-Chloro-phenyl)-3-(cyclopropylmethyl-{4-[3-(2,5-dioxo-pyrrolidin-1-yl)-propyl]-3-methoxy-benzyl}-amino)-propionic acid]"
7,120,"CCCCN(Cc1ccc(OCCN2C(=O)CCC2=O)c(CC)c1)C(CC(=O)O)c1ccc(Cl)c(Cl)c1 (stereo not drawn) [Example 99, 3-(Butyl-{4-[2-(2,5-dioxo-pyrrolidin-1-yl)-ethoxy]-3-ethyl-benzyl}-amino)-3-(3,4-dichloro-phenyl)-propionic acid]"
8,79,"CCCCN(Cc1ccc(OCCN2C(=O)CCC2=O)c(CC)c1)C(CC(=O)O)c1ccc(Cl)c(F)c1 (stereo not drawn) [Example 93, 3-(Butyl-{4-[2-(2,5-dioxo-pyrrolidin-1-yl)-ethoxy]-3-ethyl-benzyl}-amino)-3-(4-chloro-3-fluoro-phenyl)-propionic acid]"
9,56,"CCCN(Cc1ccc(OCCN2C(=O)CCC2=O)c(CC)c1)C(CC(=O)O)c1ccc(Cl)c(F)c1 (stereo not drawn) [Example 91, 3-(4-Chloro-3-fluoro-phenyl)-3-({4-[2-(2,5-dioxo-pyrrolidin-1-yl)-ethoxy]-3-ethyl-benzyl}-propyl-amino)-propionic acid]"
10,51,"CCc1cc(CN(CC2CCCCC2)C(CC(=O)O)c2ccc(Cl)cc2)ccc1OCCN1C(=O)CCC1=O (stereo not drawn) [Example 89, 3-(4-Chloro-phenyl)-3-(cyclohexylmethyl-{4-[2-(2,5-dioxo-pyrrolidin-1-yl)-ethoxy]-3-ethyl-benzyl}-amino)-propionic acid]"
11,50,"CCc1cc(CN(CC2CC2)C(CC(=O)O)c2ccc(Cl)c(F)c2)ccc1OCCN1C(=O)CCC1=O (stereo not drawn) [Example 90, 3-(4-Chloro-3-fluoro-phenyl)-3-(cyclopropylmethyl-{4-[2-(2,5-dioxo-pyrrolidin-1-yl)-ethoxy]-3-ethyl-benzyl}-amino)-propionic acid]"
12,42,"Cc1cc(CN(CC2CC2)C(CC(=O)O)c2ccc3c(c2)CCO3)ccc1OCCn1c(=O)ccn(C)c1=O (stereo not drawn) [Example 131, 3-(Cyclopropylmethyl-{3-methyl-4-[2-(3-methyl-2,6-dioxo-3,6-dihydro-2H-pyrimidin-1-yl)-ethoxy]-benzyl}-amino)-3-(2,3-dihydro-benzofuran-5-yl)-propionic acid]"
